Reference: patent US20250051301A1, “MUTANT IDH1 AND IDH2 INHIBITOR AND APPLICATION THEREOF” (Betta Pharmaceuticals Co., Ltd, priority 2022, published 2025)
≈ marks a conversion by molar mass, not a printed value.

Experiments:
[1] = Kinetic solubility experiment; format: physicochemical; conditions: buffer, kinetic from dmso stock
Method: 1. Preparation of Solutions/Buffers at Different pH Values
• Solution A: 17.42 g of K2HPO4 was weighed and dissolved in 1 L of ultrapure water. • Solution B: 13.65 g of KH2PO4 was weighed and dissolved in 1 L of ultrapure water.
A certain mass of substance to be tested was accurately weighed and dissolved in a certain volume of DMSO to obtain a 20 mM or 10 mM stock solution.
An acetonitrile stopping solution containing 1 ng/mL of labetalol and glibenclamide was prepared.
3. Incubation System (n=3)
The above-mentioned solutions were placed in a 96-well plate, respectively and shaken in a thermostatic oscillator for 2 hours (37° C., 150 rpm).
4. Control solution: 200 μM control solution of the substance to be tested was prepared in methanol. 5. Sample treatment
At a predetermined time, the 96-well plate was placed in a centrifuge and centrifuged at 4100 rpm for 15 minutes. A certain volume of the supernatant and a certain volume of control solution were respectively taken into 19 times volume of water containing 70% acetonitrile that has been previously added. The mixture was uniformly mixed, diluted 20 times with an internal standard stop solution and shaken in a thermostatic oscillator at 700 rpm at room temperature for 5 min. Further dilution may be necessary depending on the sensitivity of the compound, and sample analysis was performed by LC-MS/MS.
The ratio of compound peak area to internal standard peak area was used for calculation. According to the concentration relationship between the compound in the buffer and the control solution, the calculated concentration was the kinetic solubility, and the calculation formula was as follows:
Solubility(μg/mL)=mass spectral peak area of the compound to be tested in buffers at different pHs×200μM×molecular weight of the compound to be tested(MW)/mass spectral peak area of the compound to be tested in methanol/1000;

IDH1^R132H [2] = target: T1, IDH1^R132H (Homo sapiens, UniProt O75874, R132H); experiment: 2-HG assay in cells (U87 cell line stably transfected with IDH1-R132H); format: cell-based; conditions: 72 hours, numeric values, read-out: 2-HG in medium (IC50, nM) (IDH1^R132H)
T1 sequence (O75874 whole entry R132H): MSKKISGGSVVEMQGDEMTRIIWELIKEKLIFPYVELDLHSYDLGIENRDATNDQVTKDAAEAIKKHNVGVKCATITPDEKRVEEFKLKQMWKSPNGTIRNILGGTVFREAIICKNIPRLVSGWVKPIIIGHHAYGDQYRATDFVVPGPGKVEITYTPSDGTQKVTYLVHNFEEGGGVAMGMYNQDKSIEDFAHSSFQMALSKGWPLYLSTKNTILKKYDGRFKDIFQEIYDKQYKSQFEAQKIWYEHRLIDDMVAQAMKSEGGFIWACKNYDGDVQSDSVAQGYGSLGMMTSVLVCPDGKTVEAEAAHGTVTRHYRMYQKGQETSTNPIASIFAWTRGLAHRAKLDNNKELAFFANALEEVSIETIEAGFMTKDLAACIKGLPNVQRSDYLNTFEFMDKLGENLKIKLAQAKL
Method: The compounds were detected for the inhibition of 2-HG production in the U87 cell line stably transfected with IDH1-R132H and the culture supernatant of TF-1 cells stably transfected with IDH2-R140Q. • (1) The cultured cells were collected by centrifugation, then suspended in a cell culture solution, counted, and seeded in a 96-well cell culture plate at 160 μL of cell suspension/well (20000 cells/well for U87-IDH1-R132H; 10000 cells/well for TF-1-IDH2-R140Q). • (2) A 96-well plate dilution was taken, and the compounds to be tested were diluted in a gradient manner in DMSO and a cell culture solution; and then 40 μL of the gradient-diluted compounds to be tested were added to the 96-well plate on which cells have been plated. […] Finally, the plate was cultured in a 37° C. incubator containing 5% CO2. • (3) After the compounds were incubated with the cells for 72 hours, the cell culture plate was taken out and centrifuged at 1500 rpm for 5 minutes, and then 100 μL of the medium supernatant was aspirated for 2-HG detection. • (4) 2-HG detection: the cell supernatant was diluted with purified water, 30 μL of the diluted sample was taken into a 1.5 ml centrifuge tube, and 200 μL of the internal standard solution was added. The mixture was mixed uniformly by vortex and centrifuged at 3200 rpm at 4° C. for 15 minutes. 100 μL of the supernatant solution was diluted with water at a 1:1 ratio and then detected by LC-MS. Analyte Peak Area was used to represent the 2-HG levels. • (5) Inhibition rate calculation, formula: % Inhibition=(1−Analyte Peak Area_sample/Analyte Peak Area_max)*100%, wherein Analyte Peak Area_sample represents the Analyte Peak Area of the sample to which the compound was added; Analyte Peak Area_max represents the average value of Analyte Peak Area of positive control wells (representing the absence of the compound). The curve fitting was performed using Graphpad Prism software to obtain IC50 values, and the test results were as shown in table 2.

IDH1^R132H [3] = target: T1, IDH1^R132H; experiment: Enzyme activity inhibition assay (fluorescence-based), IDH1 R132H; format: biochemical; conditions: numeric values
Method: The inhibitory ability of the compounds on the enzyme activities of IDH1^R132H and IDH2^R140Qwas detected and expressed as the half inhibitory concentration (IC50) value. AG-881 was used as a positive control compound. In this experiment, compounds were screened on enzymes IDH1^R132H and IDH2^R140Q using a fluorescence-based method (initial concentration: 10000 nM, 3-fold dilution, 10 concentrations, and single-well detection). • (1) Preparation of 1×assay buffer. • (2) Preparation of compound concentration gradient: the compounds to be tested were assayed at an initial concentration of 10000 nM, with 3-fold dilution and 10 concentrations, and diluted into 200-fold the final concentration in 100% DMSO solution in a 384-well plate. • (3) 250 nL of DMSO and 250 nL of diluted compounds were transferred to a reaction plate with Echo 550. • (4) IDH2^R140Q enzyme detection: 25 μL of an IDH2^R140Q enzyme solution was added, and the mixture was incubated for 60 minutes; then 25 μL of a substrate solution was added, and the mixture was incubated for 150 minutes; then 25 μL of a detection buffer was added, and the mixture was shaken for 1 minute and incubated for 60 minutes; and finally, Synergy 2, Ex544/Em590 cutoff 590 was used for reading. • (5) IDH1^R132H enzyme detection: 40 μL of a mixture solution of an IDH1^R132H enzyme at the 1.25-fold final concentration and NADPH was added, and the mixture was incubated for 60 minutes; then 10 μL of a substrate solution at the 5-fold final concentration was added, and the mixture was incubated for 90 minutes; then 25 μL of a detection buffer at the 3-fold final concentration was added, and the mixture was shaken for 1 minute. and finally, Synergy 2, Ex544/Em590 cutoff 590 was used for reading. • (8) Inhibition rate calculation, formula: % Inhibition=(RFU_sample−RFU_min)/(RFU_max−RFU_min)*100%, wherein RFU-sample represents the fluorescence intensity of a sample; RFU-min represents the average value of negative control wells and represents the fluorescence intensity with an enzyme; and RFU-max represents the average value of positive control wells and represents the fluorescence intensity without an enzyme. The curve fitting was performed using Graphpad Prism software to obtain IC50 values, and the test results were as shown in table 2.

solubility at 2 h ([1]; aqueous buffer, pH = 3.0, 37° C.): 53.3 µg/mL (≈ 119 µM) | solubility at 2 h ([1]; aqueous buffer, pH = 5.0, 37° C.): 59.5 µg/mL (≈ 133 µM) | solubility at 2 h ([1]; aqueous buffer, pH = 7.4, 37° C.): 48.1 µg/mL (≈ 107 µM) | solubility at 2 h ([1]; simulated gastric fluid, pH = 1.0, 37° C.): 86.6 µg/mL (≈ 193 µM) | IC50 (IDH1^R132H [2]): 0.5 nM | IC50 (IDH1^R132H [3]): 8 nM
SMILES: C[C@@H](Nc1nc(N[C@H](C)C(F)(F)F)nc(-c2cc(F)c(N)c(Cl)n2)n1)C(F)(F)F [Example 5, 6-(5-amino-6-chloro-4-fluoropyridin-2-yl)-N^2,N^4-bis((R)-1,1,1-trifluoropropyl-2-yl)-1,3,5-triazine-2,4-diamine]
